System: S. epidermidis
Test: bacterial respiration of S. epidermidis suspension in microplate
Assay type: cell-based
Conditions: lactam pre-blended with hydrotrope, added to remainder of composition, diluted to 11.5 ppm and 0.575 ppm; 20 hours
Experimental: Test samples were diluted in sterile water to achieve a 11.5 ppm level of lactam. Dilute solution (80 μl) was added to a S. epidermidis suspension (20 μl) of bacteria at a concentration of 8 logs in a microplate. Growth media (100 μl tryptone soya broth) was added to each well of the microplate and incubated for 20 hours. Bacterial respiration was measured every 30 minutes and the results were: • A—lactam+hydrotrope only (respiration of surviving bacteria detected ˜4-5 h) • B—lactam added directly to base formulation (which contains MPG)—no pre-mixing prior to addition (respiration of surviving bacteria detected 4-5 hrs) • C—lactam pre-mixed with hydrotrope and then added to base formulation (respiration of surviving bacteria not detected—20 hrs is max detection time) • D—hydrotrope added to base formulation (respiration of surviving bacteria detected 3-4 hrs). The example below is from data obtained when pre-blending lactams with hydrotrope before adding to the remainder of the composition, and diluting to 11.5 ppm and 0.575 ppm in sterile water in order to assess efficacy against S. epidermidis suspension Dilute solution (80 μl) was added to a S. epidermidis suspension (20 μl) of bacteria at a concentration of 8 logs in a microplate. Growth media (100 μl tryptone soya broth) was added to each well of the microplate and incubated for 20 hours. Bacterial respiration was measured every 30 minutes. Data of the test samples were then compared to un-treated cell suspensions (sterile water added instead of test samples) and percent inhibition calculated.

SMILES | Result (inhibition of bacterial respiration versus water control) [%]
C=C1NC(=O)CC1c1ccccc1F (centres unmarked) [5-methylene-4-(2′-fluorophenyl)-dihydropyrrol-2-one] | 79.4
C=C1NC(=O)C=C1c1ccc(Br)cc1 [5-methylene-4-(4′-bromophenyl)-dihydroprrol-2-one] | 82.5
